# Assays:
# [1] = biological target: T1, GLS1 (purified recombinant human GAC) (Homo sapiens, UniProt O94925); experiment: GLS1 Enzymatic Activity Assay (dual-coupled enzymatic assay); format: biochemical; settings: 50 mM potassium phosphate, 1 mM glutamine, read-out: IC50 against GLS1
# T1 sequence (O94925 55-598 isoform O94925-3 limits assumed): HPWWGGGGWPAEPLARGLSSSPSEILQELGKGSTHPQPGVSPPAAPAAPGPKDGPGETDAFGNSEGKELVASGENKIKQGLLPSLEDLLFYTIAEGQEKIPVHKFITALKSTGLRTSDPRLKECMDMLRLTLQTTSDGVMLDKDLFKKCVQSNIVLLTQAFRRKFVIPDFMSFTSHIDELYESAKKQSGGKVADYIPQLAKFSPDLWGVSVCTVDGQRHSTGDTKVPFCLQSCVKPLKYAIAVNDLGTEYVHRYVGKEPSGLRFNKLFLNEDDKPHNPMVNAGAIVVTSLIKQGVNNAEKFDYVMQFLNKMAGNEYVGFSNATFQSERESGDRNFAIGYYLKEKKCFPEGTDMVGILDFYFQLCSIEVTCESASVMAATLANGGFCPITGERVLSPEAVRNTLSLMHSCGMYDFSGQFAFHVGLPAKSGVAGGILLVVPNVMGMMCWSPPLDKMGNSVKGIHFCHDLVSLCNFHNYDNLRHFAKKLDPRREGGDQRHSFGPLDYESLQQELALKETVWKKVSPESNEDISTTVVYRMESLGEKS
# Procedure: GLS1 Enzymatic Activity Assay
# The inhibition of purified recombinant human GAC by varying concentrations of inhibitors is assessed via a dual-coupled enzymatic assay. The glutamate produced by the glutaminase reaction is used by glutamate oxidase to produce α-ketoglutarate, ammonia, and hydrogen peroxide, with this hydrogen peroxide subsequently being used by horseradish peroxidase to produce resorufin in the presence of Amplex UltraRed. The assay buffer consisted of 50 mM HEPES (pH 7.4), 0.25 mM EDTA and 0.1 mM Triton X-100. GAC was incubated with potassium phosphate (10 minutes at room temperature) prior to incubation with inhibitor (10 minutes at room temperature). The final reaction conditions were as follows: 2 nM GAC, 50 mM potassium phosphate, 100 mU/ml glutamate oxidase (Sigma), 1 mM glutamine (Sigma), 100 mU/ml horseradish peroxidase (Sigma), 75 μM Amplex UltraRed (Life Technologies), and 1% (v/v) DMSO. The production of resorufin was monitored on a Perkin Elmer Envision plate reader (excitation 530 nm, emission 590 nm) either in a kinetics or endpoint mode (at 20 minutes). IC50 values were calculated using a four-parameter logistic curve fit.
# [2] = tested on: A549 cells; experiment: Proliferation Assay (A549 viability, Cell Titer Fluor, 72 hours); format: cell-based; settings: Homo sapiens, read-out: EC50 against A549 cell proliferation
# Procedure: A549 cells were routinely maintained in RPMI 1640 media (Gibco catalog number 11875-093) supplemented with 10% dialyzed fetal bovine serum using a humidified incubator (37° C., 5% CO2 and ambient O2). In preparation for the viability assay, cells were inoculated into 384-well black CulturPlates (Perkin Elmer) at a density of 1000 cells/well in a volume of 40 μl. Following a 24-hour incubation at 37° C., 5% CO2 and ambient 02, cells were treated with compound (10 μl) in a final DMSO concentration of 0.5% (v/v). The microplates were then incubated for 72 hours (37° C., 5% CO2 and ambient O2). Cell Titer Fluor (Promega) was subsequently added (10 μl of 6× reagent) and mixed for 15 minutes at room temperature. The plates were then incubated for 30 minutes (37° C., 5% CO2 and ambient O2) and fluorescence was subsequently read on the Perkin Elmer Envision plate reader. EC50 values were calculated using a four-parameter logistic curve fit.
SMILES,IC50 [1] [nM],EC50 [2] [nM]
"CC(=O)Nc1nnc(C2CCCN(c3nnc(NC(=O)Cc4cccc(OC(F)(F)F)c4)s3)C2)s1 (stereo not drawn) [Example 25, N-(5-(3-(5-acetamido-1,3,4-thiadiazol-2-yl)piperidin-1-yl)-1,3,4-thiadiazol-2-yl)-2-(3-(trifluoromethoxy)phenyl)acetamide]",100 to 500,500 to 5000
"O=C(Cc1ccccn1)Nc1nnc(C2CCN(c3nnc(NC(=O)Cc4cccc(OC(F)(F)F)c4)s3)C2)s1 (stereo not drawn) [Example 32, 2-(pyridin-2-yl)-N-(5-(1-(5-(2-(3-(trifluoromethoxy)phenyl)acetamido)-1,3,4-thiadiazol-2-yl)pyrrolidin-3-yl)-1,3,4-thiadiazol-2-yl)acetamide]",100 to 500,500 to 5000
"NC(=O)c1nnc(N2CCC(c3ccc(NC(=O)Cc4ccccn4)nn3)C2)s1 (stereo not drawn) [Example 39, 5-(3-(6-(2-(pyridin-2-yl)acetamido)pyridazin-3-yl)pyrrolidin-1-yl)-1,3,4-thiadiazole-2-carboxamide]",100 to 500,500 to 5000
"CNC(=O)c1nnc(N2CCC(c3ccc(NC(=O)Cc4ccccn4)nn3)C2)s1 (stereo not drawn) [Example 41, N-methyl-5-(3-(6-(2-(pyridin-2-yl)acetamido)pyridazin-3-yl)pyrrolidin-1-yl)-1,3,4-thiadiazole-2-carboxamide]",100 to 500,100 to 500
"O=C(Cc1ccccn1)Nc1ccc(N2CCC(c3nnc(NC(=O)Cc4cccc(OC(F)(F)F)c4)s3)C2)nn1 (stereo not drawn) [Example 42, 2-(pyridin-2-yl)-N-(6-(3-(5-(2-(3-(trifluoromethoxy)phenyl)acetamido)-1,3,4-thiadiazol-2-yl)pyrrolidin-1-yl)pyridazin-3-yl)acetamide]",< 100,100 to 500
"O=C(Cc1ccccn1)Nc1ccc(C2CCN(c3nnc(C(=O)NCc4cccc(OC(F)(F)F)c4)s3)C2)nn1 (stereo not drawn) [Example 43, 5-(3-(6-(2-(pyridin-2-yl)acetamido)pyridazin-3-yl)pyrrolidin-1-yl)-N-(3-(trifluoromethoxy)benzyl)-1,3,4-thiadiazole-2-carboxamide]",< 100,< 100
"O=C(Cc1ccccn1)Nc1ccc([C@@H]2CCN(c3nnc(C(=O)NCc4cc(C(F)(F)F)ccn4)s3)C2)nn1 [Example 44, (R)-5-(3-(6-(2-(pyridin-2-yl)acetamido)pyridazin-3-yl)pyrrolidin-1-yl)-N-((4-(trifluoromethyl)pyridin-2-yl)methyl)-1,3,4-thiadiazole-2-carboxamide]",< 100,< 100
"O=C(Cc1ccccn1)Nc1ccc([C@@H]2CCN(c3nnc(C(=O)NCc4ccccn4)s3)C2)nn1 [Example 46, (R)-5-(3-(6-(2-(pyridin-2-yl)acetamido)pyridazin-3-yl)pyrrolidin-1-yl)-N-(pyridin-2-ylmethyl)-1,3,4-thiadiazole-2-carboxamide]",< 100,< 100
"O=C(Cc1ccccn1)Nc1ccc([C@@H]2CCN(c3nnc(C(=O)NCc4cc(C5CC5)ccn4)s3)C2)nn1 [Example 47, (R)-N-((4-cyclopropylpyridin-2-yl)methyl)-5-(3-(6-(2-(pyridin-2-yl)acetamido)pyridazin-3-yl)pyrrolidin-1-yl)-1,3,4-thiadiazole-2-carboxamide]",< 100,< 100
"Cc1cc(C(F)(F)F)cc(CNC(=O)c2nnc(N3CC[C@@H](c4ccc(NC(=O)Cc5ccccn5)nn4)C3)s2)n1 [Example 48, (R)-N-((6-methyl-4-(trifluoromethyl)pyridin-2-yl)methyl)-5-(3-(6-(2-(pyridin-2-yl)acetamido)pyridazin-3-yl)pyrrolidin-1-yl)-1,3,4-thiadiazole-2-carboxamide]",< 100,< 100

# The next lines start with the values.
IC50 [1] [nM],EC50 [2] [nM],SMILES
< 100,100 to 500,"O=C(Cc1cccc(OC(F)(F)F)c1)Nc1ccc(N2CCCC(c3nnc(NC(=O)Cc4ccccc4F)s3)C2)nn1 (stereo not drawn) [Example 23, 2-(2-fluorophenyl)-N-(5-(1-(6-(2-(3-(trifluoromethoxy)phenyl)acetamido)pyridazin-3-yl)piperidin-3-yl)-1,3,4-thiadiazol-2-yl)acetamide]"
< 100,500 to 5000,"Cn1cc(CC(=O)Nc2nnc(C3CCCN(c4ccc(NC(=O)Cc5cccc(OC(F)(F)F)c5)nn4)C3)s2)cn1 (stereo not drawn) [Example 24, 2-(1-Methyl-1H-pyrazol-4-yl)-N-(5-(1-(6-(2-(3-(trifluoromethoxy)phenyl)acetamido)pyridazin-3-yl)piperidin-3-yl)-1,3,4-thiadiazol-2-yl)acetamide]"
< 100,100 to 500,"O=C(Cc1ccccn1)Nc1nnc(C2CCCN(c3nnc(NC(=O)Cc4cccc(OC(F)(F)F)c4)s3)C2)s1 (stereo not drawn) [Example 26, 2-(pyridin-2-yl)-N-(5-(1-(5-(2-(3-(trifluoromethoxy)phenyl)acetamido)-1,3,4-thiadiazol-2-yl)piperidin-3-yl)-1,3,4-thiadiazol-2-yl)acetamide]"
< 100,100 to 500,"CC(=O)Nc1nnc(N2CCC(c3ccc(NC(=O)Cc4cccc(OC(F)(F)F)c4)nn3)C2)s1 (stereo not drawn) [Example 27, N-(6-(1-(5-acetamido-1,3,4-thiadiazol-2-yl)pyrrolidin-3-yl)pyridazin-3-yl)-2-(3-(trifluoromethoxy)phenyl)acetamide]"
< 100,100 to 500,"CC(=O)Nc1nnc(C2CCN(c3ccc(NC(=O)Cc4cccc(OC(F)(F)F)c4)nn3)C2)s1 (stereo not drawn) [Example 29, N-(6-(3-(5-acetamido-1,3,4-thiadiazol-2-yl)pyrrolidin-1-yl)pyridazin-3-yl)-2-(3-(trifluoromethoxy)phenyl)acetamide]"
< 100,100 to 500,"O=C(Cc1cccc(OC(F)(F)F)c1)Nc1ccc(N2CCC(c3nnc(NC(=O)Cc4ccc(F)cc4F)s3)C2)nn1 (stereo not drawn) [Example 33, 2-(2,4-difluorophenyl)-N-(5-(1-(6-(2-(3-(trifluoromethoxy)phenyl)acetamido)pyridazin-3-yl)pyrrolidin-3-yl)-1,3,4-thiadiazol-2-yl)acetamide]"
< 100,< 100,"O=C(Cc1cccc(OC(F)(F)F)c1)Nc1ccc(N2CCC(c3nnc(NC(=O)CC4CCCCO4)s3)C2)nn1 (stereo not drawn) [Example 34, 2-(tetrahydro-2H-pyran-2-yl)-N-(5-(1-(6-(2-(3-(trifluoromethoxy)phenyl)acetamido)pyridazin-3-yl)pyrrolidin-3-yl)-1,3,4-thiadiazol-2-yl)acetamide]"
< 100,100 to 500,"O=C(Cc1cccc(OC(F)(F)F)c1)Nc1ccc(N2CCC(c3nnc(NC(=O)Cc4noc5ccccc45)s3)C2)nn1 (stereo not drawn) [Example 36, 2-(benzo[d]isoxazol-3-yl)-N-(5-(1-(6-(2-(3-(trifluoromethoxy)phenyl)acetamido)pyridazin-3-yl)pyrrolidin-3-yl)-1,3,4-thiadiazol-2-yl)acetamide]"
< 100,100 to 500,"Cn1ccc(CNC(=O)c2nnc(N3CCC(c4ccc(NC(=O)Cc5ccccn5)nn4)C3)s2)n1 (stereo not drawn) [Example 37, N-((1-methyl-1H-pyrazol-3-yl)methyl)-5-(3-(6-(2-(pyridin-2-yl)acetamido)pyridazin-3-yl)pyrrolidin-1-yl)-1,3,4-thiadiazole-2-carboxamide]"
< 100,< 100,"O=C(Cc1ccccn1)Nc1ccc(C2CCN(c3nnc(C(=O)NCc4cc(C(F)(F)F)ccn4)s3)C2)nn1 (stereo not drawn) [Example 38, 5-(3-(6-(2-(pyridin-2-yl)acetamido)pyridazin-3-yl)pyrrolidin-1-yl)-N-((4-(trifluoromethyl)pyridin-2-yl)methyl)-1,3,4-thiadiazole-2-carboxamide]"
< 100,< 100,"CNC(=O)c1nnc(N2CCC(c3ccc(NC(=O)Cc4cn(-c5cccc(OC(F)(F)F)c5)cn4)nn3)C2)s1 (stereo not drawn) [Example 40, N-methyl-5-(3-(6-(2-(1-(3-(trifluoromethoxy)phenyl)-1H-imidazol-4-yl)acetamido)pyridazin-3-yl)pyrrolidin-1-yl)-1,3,4-thiadiazole-2-carboxamide]"
